Laboratory results taken from patent publication US8449864B2 (The Board of Trustees of the Leland Stanford Junior …, priority 2006, dated 2013).

How the values were obtained:
[1] = test system: PLCs containing PMCs; assay: NT degradation by peritoneal lavage cells (PLCs) containing peritoneal mast cells; type: cell-based, mouse; details: BAPTA-AM 50 mM pre-treatment; NT 10 μM, 30 min at 37° C.
Method: FIG. 5. Neurolysin and carboxypeptidase inhibitors prevent NT degradation by peritoneal mast cells. Kit^+/+ PLCs containing 5×10^4 PMCs were pre-treated for 15 min at 37° C. with one of the following protease inhibitors: chymostatin (chym, chymase inhibitor at 100 μM), CFp-Ala-Ala-Phe-pAB (CFp, […] at 10 μM only for PLCs), potato carboxypeptidase inhibitor (PCI, carboxypeptidase inhibitor at 10 μg/ml) and phosphodiepryl 03 (p03, neurolysin inhibitor at 100 nM for PLCs. Cells were then incubated with NT (10 μM) for 30 min at 37° C. Results are the percentage of NT remaining after incubation with cells compared to the starting concentration of NT (n=4-9 per group).
FIG. 12. (a), PLCs containing 1×10^4 PMCs obtained from either wild type C57BL/6 mice, Ntsr1-deficient (Ntsr1^−/−) mice or Ntsr2-deficient (Ntsr2^−/−) mice were incubated for 2 h with ^3H-5-hydroxytryptamine (3H-serotonin) at 37° C. and stimulated for 15 min at 37° C. with either ET-1 (4 μM) or NT (10 μM). (b), PLCs containing 1×10^4 PMCs obtained from C57BL/6 mice were incubated for 2 h with ^3H-serotonin and stimulated for 15 min with either ET-1 (4 μM) or NT (10 μM). In a separate set of experiments, cells were pre-incubated with BAPTA-AM (Sigma) ([…], 15 min at […]) before the addition of the stimuli. Results are mean ±SEM of 3 experiments. (c), mMC-CPA activity was measured in supernatants obtained from Kit^+/+ PLCs containing 5×10^4 PMCs that were stimulated for 30 min at 37° C. with either ET-1 (4 μM) or NT (10 μM). (d), PLCs containing 5×10^4 PMCs from C57BL/6J mice were pre-treated for 15 min at 37° C. with BAPTA-AM ([…], a Ca^2+ chelator that can reduce MC degranulation) and then incubated with NT (10 μM) for 30 min at 37° C. Results are expressed as the percentage of NT remaining after incubation with cells compared to that in samples of NT incubated in vehicle alone at 37° C. (data were pooled from triplicate determinations in two independent experiments that gave similar results). (e), Expression of mRNA for NT-receptors in the AtT20 neuroendocrine cell line, the mast cell line C1.MC/C57.1, C57BL/6J BMCMCs, Kit^+/+ BMCMCs and peritoneal mast cells purified from Kit^+/+ mice (PMCs).
NT, ET-1, C-reactive protein, and TNF measurements. Concentrations of NT, C-reactive protein, ET-1 and TNF were measured by ELISA (Bachem Peninsula Labs for NT; Biomedica, Vienna for C-reactive protein and ET-1; BD Biosciences for TNF). […] The detection limits for the ELISA kits were: 24 fmol/ml (NT), 0.048 fmol/ml (ET-1), 0.124 ng/ml (C-reactive protein) and […] (human TNF).

[2] = test system: PMCs; assay: 3H-serotonin release from peritoneal mast cells; type: cell-based, mouse; details: BAPTA-AM, 30 min; ET-1 4 μM
Source text: Results are mean ±SEM of 3 experiments. […] (data were pooled from triplicate determinations in two independent experiments that gave similar results).

[3] = test system: NTR1; details: cited from earlier work
[4] = biological target: NTR2 (Homo sapiens, UniProt O95665); details: cited from earlier work
NTR2, sequence (O95665 whole entry, species assumed): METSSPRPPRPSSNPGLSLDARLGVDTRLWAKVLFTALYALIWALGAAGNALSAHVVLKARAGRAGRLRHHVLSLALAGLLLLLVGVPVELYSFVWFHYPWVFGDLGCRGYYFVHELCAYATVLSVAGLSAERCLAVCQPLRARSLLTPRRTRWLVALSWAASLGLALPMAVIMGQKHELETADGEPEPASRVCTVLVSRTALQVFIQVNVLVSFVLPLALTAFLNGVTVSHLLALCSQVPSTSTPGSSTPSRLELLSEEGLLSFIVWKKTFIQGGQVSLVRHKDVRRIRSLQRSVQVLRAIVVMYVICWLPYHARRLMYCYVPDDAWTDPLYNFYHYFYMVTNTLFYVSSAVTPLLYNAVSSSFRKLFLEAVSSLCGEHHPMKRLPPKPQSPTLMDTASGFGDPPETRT

[5] = test system: mMC-CPA; assay: shRNA knock-down of mMC-CPA protein in BMCMCs (Western blot); type: cell-based, mouse; details: Kit+/+ BMCMCs, lentiviral shRNA
Source text: (§1) FIG. 9. Use of shRNA approach to knock-down NLN and mMC-CPA in BMCMCs. Protein expression for: (a), NLN and (b), mMC-CPA; and (c), mMC-CPA activity in Kit^+/+ BMCMCs treated with either empty vector or shRNAs. (d), mMCP-4 and mMCP-5 protein expression in Kit^+/+ BMCMCs treated with empty vector, NLN-shRNA or mMC-CPA-shRNA.
Lentiviral vector production. pLentiLox 3.7 (pLL3.7), a vector engineered to co-express enhanced green fluorescent protein (GFP) as a reporter gene, that permits infected cells to be tracked by flow cytometry, was digested with Xhol and Hpal and the annealed oligos (SEQ ID NO. 3) 5′-t-[…]-ttcaagaga-[…]-ttttttc-3′ and (SEQ ID NO. 4) 5′-tcgagaaaaaa-[…]-tctcttgaa-[…]-a-3′ for mMC-CPA and (SEQ ID NO. 5) 5′-t-[…]-ttcaagaga-[…]-ttttttc-3′ (SEQ ID NO. 6) 5′-tcgagaaaaaa-[…]-tctcttgaa-[…]-a-3′ for NLN were ligated into pLL3.7 to yield a directed shRNA-producing vector. The 19 nt target sequences are indicated in capitals in the oligonucleotide sequence. Active viral stocks were created and concentrated as previously described. Briefly, 293T cells were transfected with the transfer vector plasmid pLL3.7-mMC-CPA or pLL3.7-NLN or pLL3.7 (empty vector), the VSV-G envelope-encoding plasmid pMD.G, and the packaging plasmid CMVΔR8.74 using the calcium phosphate method. […]

[6] = test system: mMC-CPA; assay: CPA enzymatic activity in shRNA-transduced BMCMCs; type: cell-based, mouse
Method: as §1
CPA enzymatic activity assay. CPA enzymatic activity was assessed by measuring reduction of absorbance of a chromogenic substrate (N-[4-Methoxyphenylazoformyl]-Phe-OH) (Bachem Peninsula Labs) specific for CPA as previously described.

[7] = test system: Kit+/+ BMCMCs; assay: NT degradation by A23187-activated shRNA-transduced BMCMCs; type: cell-based, mouse; details: A23187 5 μM; NT 10 μM, 30 min at 37° C.
Method: FIG. 8. MC-associated neurolysin (NLN) contributes to the MCs' ability to reduce NT-induced hypotension. (a) Identification of NLN in the membrane and cytosol fractions of C1.MC/C57.1 MCs and C57BL/6J BMCMCs. (b) Degradation of NT (10 μM) by membrane and cytosol preparations obtained from Kit^+/+ BMCMCs (2×10^6 cells/preparation) that were pre-treated with either vehicle or with Pro-Ile (10 μM, 15 min at […]). Results are expressed as the percentage of NT remaining after incubation with membrane or cytosol preparations compared to that in samples of NT incubated in vehicle alone (n=3). […] Results are expressed as the percentage of NT remaining in the samples compared to that in samples of NT incubated in vehicle alone at 37° C. […] (e) Changes in MAP versus baseline levels (=“0”, measured 3 min after injection of 300 μl saline, i.p.) at various times after injection of NT (6 nmol in 300 μl saline, i.p.) in Kit^W/W-v mice which had been engrafted i.p. with Kit^+/+ BMCMCs treated with either empty vector (empty vector MCs→Kit^W/W-v), NLN-shRNA (NLN-shRNA MCs→Kit^W/W-v) or mMC-CPA-shRNA (mMC-CPA-shRNA MCs→Kit^W/W-v). […]
NT, ET-1, C-reactive protein, and TNF measurements. Concentrations of NT, C-reactive protein, ET-1 and TNF were measured by ELISA (Bachem Peninsula Labs for NT; Biomedica, Vienna for C-reactive protein and ET-1; BD Biosciences for TNF). […]

[8] = test system: Kit+/+ BMCMCs; assay: Beta-hexosaminidase release of BMCMCs upon FcεRI cross-linking; type: cell-based, mouse; details: vs empty vector-treated cells
Method: FIG. 10. BMCMCs treated with shRNAs degranulate after high affinity Fc receptor for IgE (FcεRI) cross-linking to the same extent than BMCMCs treated with empty vector. Beta-hexosaminidase release by Kit^+/+ BMCMCs treated with empty vector, NLN-shRNA for NLN or mMC-CPA-shRNA. Cells (1.25×10^5) were sensitized with IgE mAb to dinitro-phenol (DNP, 2 μg/ml) overnight at 37° C. and then were challenged with DNP-human serum albumin (DNP-HSA, 10 ng/ml) for 30 min at 37° C.
Beta-hexosaminidase release. Beta-hexosaminidase was measured on an enzyme-linked immunosorbent assay “reader” that detects the hydrolysis product of p-nitrophenyl-N-acetyl-b-D-glucosamine (Sigma) used as a substrate.

Molecule: CC(=O)OCOC(=O)CN(CC(=O)OCOC(C)=O)c1ccccc1OCCOc1ccccc1N(CC(=O)OCOC(C)=O)CC(=O)OCOC(C)=O [BAPTA-AM]
- ability of PMCs to degrade NT [1]: did not reduce the ability of PMCs to degrade NT
- ET-1-induced PMC serotonin release [2]: markedly inhibited

Molecule: COc1cccc(OC)c1-c1cc(C(=O)NC2(C(=O)O)C3CC4CC(C3)CC2C4)nn1-c1ccc(C(=O)N(C)CCCN(C)C)cc1C(C)C (stereo not drawn) [SR142948A]
- affinity for NTR1 relative to SR48692 [3]: higher affinity for NTR1 than SR48692
- affinity for NTR1 ([3]; different tissues and cells from various species): nanomolar affinity
- affinity for NTR2 [4]: nanomolar affinity

B1: mMC-CPA-shRNA: lentivirus-delivered short hairpin RNA silencing mMC-CPA, SEQ ID NO. 3/4 (nucleic acid)
chain 1: TGAAACAGTTTGATGTGAAATTCAAGAGATTTCACATCAAACTGTTTCTTTTTTC
chain 2: TCGAGAAAAAAGAAACAGTTTGATGTGAAATCTCTTGAATTTCACATCAAACTGTTTCA
- reduction in mMC-CPA protein expression level [5]: 90%
- mMC-CPA enzymatic activity [6]: substantially reduced
- ability to degrade NT after activation with A23187 [7]: significantly reduced ability to degrade NT
- degranulation upon FcεRI cross-linking [8]: degranulated to the same extent
